“And” between values parts separate entries of the source, which are not always exact repeats. Equal values may be shown once. Read-outs that look alike come from different tables or passages of the source.
What was measured:
hCB1 = hCB1 (Homo sapiens, UniProt P21554); assay: bioSensAll ebBRET signaling profiling, hCB1; assay type: cell-based; set-up: host or cells: HEK293SL cells, transient PEI transfection; conditions: for Gi1 hCB1 response: Gi1 biosensor; for Gi1 hCB1 / GoB hCB1: single replicate values, FigS6a; for EC50: read-out: EC50 [95% CI]; for Emax: normalized to CP-55,940
Chain of hCB1 (P21554 whole entry): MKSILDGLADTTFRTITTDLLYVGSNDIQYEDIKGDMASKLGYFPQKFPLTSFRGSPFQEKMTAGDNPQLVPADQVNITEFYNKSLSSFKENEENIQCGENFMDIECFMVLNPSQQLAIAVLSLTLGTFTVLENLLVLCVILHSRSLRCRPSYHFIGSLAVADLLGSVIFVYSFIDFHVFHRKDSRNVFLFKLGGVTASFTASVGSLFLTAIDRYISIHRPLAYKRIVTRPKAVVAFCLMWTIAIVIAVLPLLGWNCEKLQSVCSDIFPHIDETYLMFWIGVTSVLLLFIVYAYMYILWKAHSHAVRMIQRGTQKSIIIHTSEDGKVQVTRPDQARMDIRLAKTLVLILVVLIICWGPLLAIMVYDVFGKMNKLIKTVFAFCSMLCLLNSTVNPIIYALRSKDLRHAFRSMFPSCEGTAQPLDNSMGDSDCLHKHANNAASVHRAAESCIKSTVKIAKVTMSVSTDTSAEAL

CB1 (rCB1) = CB1 (rCB1) (Rattus norvegicus, UniProt P20272); assay: Radioligand competition binding, [3H]-CP-55,940, rat brain membranes; conditions: for pKi [95% CI]: rCB1; for Ki: read-out: Ki [95% CI], rCB1, [3H]-CP-55,940
Chain of CB1 (rCB1) (P20272 whole entry): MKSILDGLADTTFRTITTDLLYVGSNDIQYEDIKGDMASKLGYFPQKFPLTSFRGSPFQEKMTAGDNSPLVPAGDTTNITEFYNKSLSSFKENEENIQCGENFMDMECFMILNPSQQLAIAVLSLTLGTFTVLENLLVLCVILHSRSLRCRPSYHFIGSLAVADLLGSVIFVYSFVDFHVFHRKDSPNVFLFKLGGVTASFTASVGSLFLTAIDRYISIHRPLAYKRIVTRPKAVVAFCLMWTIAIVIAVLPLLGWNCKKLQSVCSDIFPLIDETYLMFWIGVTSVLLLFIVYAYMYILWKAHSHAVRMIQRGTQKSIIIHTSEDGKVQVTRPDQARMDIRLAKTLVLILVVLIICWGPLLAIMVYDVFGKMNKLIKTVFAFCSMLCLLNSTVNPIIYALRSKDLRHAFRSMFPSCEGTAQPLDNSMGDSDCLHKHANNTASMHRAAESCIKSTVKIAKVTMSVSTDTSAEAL

Cc1cc(C(=O)NC(c2ccccc2)c2ccco2)nn1-c1cccc(C(F)(F)F)c1 (stereo not shown) [‘1081]
Gi1 hCB1 response (hCB1; Log [Compound] (M) -4.22186): 74.944
Gi1 hCB1 response (hCB1; Log [Compound] (M) -4.63927): 67.9833
Gi1 hCB1 response (hCB1; Log [Compound] (M) -5.05788): 54.8454
Gi1 hCB1 response (hCB1; Log [Compound] (M) -5.47381): 47.9296
Gi1 hCB1 response (hCB1; Log [Compound] (M) -5.89285): 64.2009
Gi1 hCB1 response (hCB1; Log [Compound] (M) -6.31878): 42.1551
Gi1 hCB1 response (hCB1; Log [Compound] (M) -6.72585): 23.6233
Gi1 hCB1 response (hCB1; Log [Compound] (M) -7.14267): 32.464
Gi1 hCB1 response (hCB1; Log [Compound] (M) -7.55284): 4.129
Gi1 hCB1 response (hCB1; Log [Compound] (M) -8): -0.3248
Gi1 hCB1 response (hCB1; Log [Compound] (M) -8.22186): 3.077
Gi1 hCB1 response (hCB1; Log [Compound] (M) -8.39794): 0.4809
Gi1 hCB1 response (hCB1; Log [Compound] (M) -8.68787): 1.913
Gi1 hCB1 response (hCB1; Log [Compound] (M) -9.15521): -3.123
Gi1 hCB1 response (hCB1; Log [Compound] (M) -9.61989): -0.5486
Gi1 hCB1 response (hCB1; Log [Compound] (M) -10.5529): 3.637
Gi1 hCB1 response (hCB1; Log [Compound] (M) -11.0177): -17.939
Gi1 hCB1 response (hCB1; Log [Compound] (M) -11.4949): 0.01089
Gi1 hCB1 response (hCB1; Log [Compound] (M) -11.9208): -4.7116
Gi1 hCB1 response (hCB1; Log [Compound] (M) -12.3979): -3.011
Gi1 hCB1 response (hCB1; Log [Compound] (M) -13, individual replicate values): 10.3511 and -8.673
Gi1 hCB1 (hCB1; Log [Compound] (M) -4.22186): 52.0891
GoB hCB1 (hCB1; Log [Compound] (M) -4.22186): 46.0629
Gi1 hCB1 (hCB1; Log [Compound] (M) -4.63927): 50.1467
GoB hCB1 (hCB1; Log [Compound] (M) -4.63927): 47.4116
Gi1 hCB1 (hCB1; Log [Compound] (M) -5.05788): 48.6204
GoB hCB1 (hCB1; Log [Compound] (M) -5.05788): 38.1682
Gi1 hCB1 (hCB1; Log [Compound] (M) -5.47381): 43.0088
GoB hCB1 (hCB1; Log [Compound] (M) -5.47381): 38.8336
Gi1 hCB1 (hCB1; Log [Compound] (M) -5.89285): 42.6234
GoB hCB1 (hCB1; Log [Compound] (M) -5.89285): 33.6364
Gi1 hCB1 (hCB1; Log [Compound] (M) -6.31878): 36.4105
GoB hCB1 (hCB1; Log [Compound] (M) -6.31878): 34.6075
Gi1 hCB1 (hCB1; Log [Compound] (M) -6.72585): 32.0322
GoB hCB1 (hCB1; Log [Compound] (M) -6.72585): 26.2812
Gi1 hCB1 (hCB1; Log [Compound] (M) -7.14267): 17.1706
GoB hCB1 (hCB1; Log [Compound] (M) -7.14267): 21.1739
Gi1 hCB1 (hCB1; Log [Compound] (M) -7.55284): 12.4531
GoB hCB1 (hCB1; Log [Compound] (M) -7.55284): 14.1424
Gi1 hCB1 (hCB1; Log [Compound] (M) -8): 6.533
GoB hCB1 (hCB1; Log [Compound] (M) -8): 4.935
Gi1 hCB1 (hCB1; Log [Compound] (M) -8.22186): 6.209
GoB hCB1 (hCB1; Log [Compound] (M) -8.22186): 1.626
Gi1 hCB1 (hCB1; Log [Compound] (M) -8.39794): 4.544
GoB hCB1 (hCB1; Log [Compound] (M) -8.39794): 0.2593
Gi1 hCB1 (hCB1; Log [Compound] (M) -8.68787): 3.434
GoB hCB1 (hCB1; Log [Compound] (M) -8.68787): -1.683
Gi1 hCB1 (hCB1; Log [Compound] (M) -9.15521): 3.357
GoB hCB1 (hCB1; Log [Compound] (M) -9.15521): -3.445
Gi1 hCB1 (hCB1; Log [Compound] (M) -9.61989): 1.492
GoB hCB1 (hCB1; Log [Compound] (M) -9.61989): -0.6039
Gi1 hCB1 (hCB1; Log [Compound] (M) -10.0969): 1.199
GoB hCB1 (hCB1; Log [Compound] (M) -10.0969): -2.51
Gi1 hCB1 (hCB1; Log [Compound] (M) -10.5529): 3.496
GoB hCB1 (hCB1; Log [Compound] (M) -10.5529): -5.459
Gi1 hCB1 (hCB1; Log [Compound] (M) -11.0177): 1.214
GoB hCB1 (hCB1; Log [Compound] (M) -11.0177): -3.661
Gi1 hCB1 (hCB1; Log [Compound] (M) -11.4949): 1.523
GoB hCB1 (hCB1; Log [Compound] (M) -11.4949): 0.9786
Gi1 hCB1 (hCB1; Log [Compound] (M) -11.9208): 2.833
GoB hCB1 (hCB1; Log [Compound] (M) -11.9208): 3.047
Gi1 hCB1 (hCB1; Log [Compound] (M) -12.3979): 0.3511
GoB hCB1 (hCB1; Log [Compound] (M) -12.3979): -1.071
Gi1 hCB1 (hCB1; Log [Compound] (M) -12.8861): 2.432
GoB hCB1 (hCB1; Log [Compound] (M) -12.8861): -2.402
Gi1 hCB1 (hCB1; Log [Compound] (M) -13): 2.448 and 3.003
GoB hCB1 (hCB1; Log [Compound] (M) -13): -0.01046 and 0.7448
pEC50 [95% CI] (hCB1; hCB1 Gi1): 6.8 [6.7 – 6.9]
pEC50 [95% CI] (hCB1; hCB1 GoB): 7.0 [6.8 – 7.3]
pEC50 [95% CI] (hCB1; hCB1 Gz): 6.7 [6.2 – 7.1]
EC50 (hCB1; hCB1 Gi1): 150 nM
EC50 (hCB1; hCB1 GoB): 91.7 nM
EC50 (hCB1; hCB1 Gz): 225 nM
Emax (hCB1; read-out: Emax [95% CI], hCB1 Gi1): 49%
Emax (hCB1; read-out: Emax [95% CI], hCB1 GoB): 45%
Emax (hCB1; read-out: Emax [95% CI], hCB1 Gz): 72%
pKi [95% CI] (CB1 (rCB1)): 6.9 [6.8 – 7.1]
Ki (CB1 (rCB1)): 116 nM

CC(=O)C(C)(NC(=O)c1cc(C)n(-c2cccc(C(F)(F)F)c2)n1)c1cccs1 (stereo not shown) [‘4156]
pKi [95% CI] (CB1 (rCB1)): 7.9 [7.5 – 8.2]
Ki (CB1 (rCB1)): 13.5 nM

COC(=O)C(NC(=O)c1cc(-c2ccccc2)n(-c2cccc(C(F)(F)F)c2)n1)c1cccs1 (stereo not shown) [‘8079]
pKi [95% CI] (CB1 (rCB1)): 7.7 [7.6 – 7.9]
Ki (CB1 (rCB1)): 18.5 nM

Reference: publication PMC11882969 (Nature Communications, 2025)
